# Assay results published in the supplement of paper PMC10307832.
# How the values were obtained:
# Assay in all cases: relative viability (nuclei count vs DMSO), 5 days (fraction); higher = more cells survive
# [1] = test system: ABC-1
# Method in brief: (§1)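 Relative viability divides the nuclei count in treated wells by that in vehicle wells. Lung cancer cell lines were seeded in 1536-well plates, dosed by pin tool the next day, and fixed and stained after 5 days in one step with final 0.05% Triton X-100, 1% formaldehyde and 1 ug/ml Hoechst. Dosing was a single drug or a fixed anchor-drug dose plus five library-drug doses (not always all listed) in √10 steps, and values are medians of duplicate plates imaged at 4×.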
# [2] = test system: NCI-H520
# Method in brief: as §1
# [3] = test system: RERF-LC-KJ
# Method in brief: as §1
# [4] = test system: NCI-H647
# Method in brief: as §1
# [5] = test system: A-427
# Method in brief: as §1
# [6] = test system: NCI-H2085
# Method in brief: as §1
# [7] = test system: HARA
# Method in brief: as §1
# [8] = test system: NCI-H2126
# Method in brief: as §1
# [9] = test system: SW 900
# Method in brief: as §1
# [10] = test system: LOU-NH91
# Method in brief: as §1
# [11] = test system: BEN
# Method in brief: as §1
# [12] = test system: LCLC-103H
# Method in brief: as §1
# [13] = test system: NCI-H661
# Method in brief: as §1
# [14] = test system: NCI-H1651
# Method in brief: as §1
# [15] = test system: NCI-H1944
# Method in brief: as §1
# [16] = test system: NCI-H1666
# Method in brief: as §1
# [17] = test system: NCI-H727
# Method in brief: as §1
# [18] = test system: NCI-H460
# Method in brief: as §1
# [19] = test system: NCI-H1734
# Method in brief: as §1
# [20] = test system: CAL-12T
# Method in brief: as §1
# [21] = test system: NCI-H1975
# Method in brief: as §1
# [22] = test system: NCI-H838
# Method in brief: as §1
# [23] = test system: NCI-H596
# Method in brief: as §1
compound,measurement,setting,value
CN1CCN(CCOc2cc(OC3CCOCC3)c3c(Nc4c(Cl)ccc5c4OCO5)ncnc3c2)CC1 [Saracatinib] + CC(=O)c1c(C)c2cnc(Nc3ccc(N4CCNCC4)cn3)nc2n(C2CCCC2)c1=O [Palbociclib] (partner 0.5 µM),relative viability,[1]; first compound 0.02 µM,0.624
same,relative viability,[1]; first compound 0.2 µM,0.646
same,relative viability,[1]; first compound 0.6325 µM,0.891
same,relative viability,[1]; first compound 2 µM,0.622
same,relative viability,[2]; first compound 0.02 µM,0.249
same,relative viability,[2]; first compound 0.2 µM,0.211
same,relative viability,[2]; first compound 0.6325 µM,0.214
same,relative viability,[2]; first compound 2 µM,0.156
same,relative viability,[3]; first compound 0.02 µM,1.05
same,relative viability,[3]; first compound 0.2 µM,1.05
same,relative viability,[3]; first compound 0.6325 µM,1.01
same,relative viability,[3]; first compound 2 µM,1.06
same,relative viability,[4]; first compound 0.02 µM,0.383
same,relative viability,[4]; first compound 0.2 µM,0.239
same,relative viability,[4]; first compound 0.6325 µM,0.347
same,relative viability,[4]; first compound 2 µM,0.265
same,relative viability,[5]; first compound 0.02 µM,0.531
same,relative viability,[5]; first compound 0.2 µM,0.457
same,relative viability,[5]; first compound 0.6325 µM,0.525
same,relative viability,[5]; first compound 2 µM,0.506
same,relative viability,[6]; first compound 0.02 µM,0.518
same,relative viability,[6]; first compound 0.2 µM,0.448
same,relative viability,[6]; first compound 0.6325 µM,0.499
same,relative viability,[6]; first compound 2 µM,0.48
same,relative viability,[7]; first compound 0.02 µM,0.234
same,relative viability,[7]; first compound 0.2 µM,0.208
same,relative viability,[7]; first compound 0.6325 µM,0.269
same,relative viability,[7]; first compound 2 µM,0.161
same,relative viability,[8]; first compound 0.02 µM,0.358
same,relative viability,[8]; first compound 0.2 µM,0.344
same,relative viability,[8]; first compound 0.6325 µM,0.363
same,relative viability,[8]; first compound 2 µM,0.349
same,relative viability,[9]; first compound 0.02 µM,0.548
same,relative viability,[9]; first compound 0.2 µM,0.432
same,relative viability,[9]; first compound 0.6325 µM,0.383
same,relative viability,[9]; first compound 2 µM,0.293
same,relative viability,[10]; first compound 0.02 µM,0.487
same,relative viability,[10]; first compound 0.2 µM,0.551
same,relative viability,[10]; first compound 0.6325 µM,0.569
same,relative viability,[10]; first compound 2 µM,0.49
same,relative viability,[11]; first compound 0.02 µM,0.513
same,relative viability,[11]; first compound 0.2 µM,0.407
same,relative viability,[11]; first compound 0.6325 µM,0.485
same,relative viability,[11]; first compound 2 µM,0.435
same,relative viability,[12]; first compound 0.02 µM,0.498
same,relative viability,[12]; first compound 0.2 µM,0.389
same,relative viability,[12]; first compound 0.6325 µM,0.479
same,relative viability,[12]; first compound 2 µM,0.461
same,relative viability,[13]; first compound 0.02 µM,0.393
same,relative viability,[13]; first compound 0.2 µM,0.359
same,relative viability,[13]; first compound 0.6325 µM,0.395
same,relative viability,[13]; first compound 2 µM,0.306
same,relative viability,[14]; first compound 0.02 µM,0.587
same,relative viability,[14]; first compound 0.2 µM,0.478
same,relative viability,[14]; first compound 0.6325 µM,0.642
same,relative viability,[14]; first compound 2 µM,0.567
same,relative viability,[15]; first compound 0.02 µM,0.3
same,relative viability,[15]; first compound 0.2 µM,0.281
same,relative viability,[15]; first compound 0.6325 µM,0.305
same,relative viability,[15]; first compound 2 µM,0.255
same,relative viability,[16]; first compound 0.02 µM,0.684
same,relative viability,[16]; first compound 0.2 µM,0.474
same,relative viability,[16]; first compound 0.6325 µM,0.599
same,relative viability,[16]; first compound 2 µM,0.651
same,relative viability,[17]; first compound 0.02 µM,0.604
same,relative viability,[17]; first compound 0.2 µM,0.692
same,relative viability,[17]; first compound 0.6325 µM,0.674
same,relative viability,[17]; first compound 2 µM,0.551
same,relative viability,[18]; first compound 0.02 µM,0.146
same,relative viability,[18]; first compound 0.2 µM,0.131
same,relative viability,[18]; first compound 0.6325 µM,0.228
same,relative viability,[18]; first compound 2 µM,0.121
same,relative viability,[19]; first compound 0.02 µM,0.362
same,relative viability,[19]; first compound 0.6325 µM,0.372
same,relative viability,[19]; first compound 2 µM,0.329
same,relative viability,[20]; first compound 0.02 µM,0.542
same,relative viability,[20]; first compound 0.2 µM,0.409
same,relative viability,[20]; first compound 0.6325 µM,0.527
same,relative viability,[20]; first compound 2 µM,0.152
same,relative viability,[21]; first compound 0.02 µM,0.584
same,relative viability,[21]; first compound 0.2 µM,0.603
same,relative viability,[21]; first compound 0.6325 µM,0.718
same,relative viability,[21]; first compound 2 µM,0.441
same,relative viability,[22]; first compound 0.02 µM,0.224
same,relative viability,[22]; first compound 0.2 µM,0.215
same,relative viability,[22]; first compound 0.6325 µM,0.216
same,relative viability,[22]; first compound 2 µM,0.182
CN1CCN(CCOc2cc(OC3CCOCC3)c3c(Nc4c(Cl)ccc5c4OCO5)ncnc3c2)CC1 [Saracatinib] + Nc1ncn([C@H]2C[C@H](O)[C@@H](CO)O2)c(=O)n1 [Decitabine] (partner 2 µM),relative viability,[1]; first compound 0.02 µM,1.01
same,relative viability,[1]; first compound 0.2 µM,1.04
same,relative viability,[1]; first compound 0.6325 µM,1.06
same,relative viability,[1]; first compound 2 µM,1.02
same,relative viability,[2]; first compound 0.02 µM,0.544
same,relative viability,[2]; first compound 0.2 µM,0.499
same,relative viability,[2]; first compound 0.6325 µM,0.434
same,relative viability,[2]; first compound 2 µM,0.346
same,relative viability,[3]; first compound 0.02 µM,0.688
same,relative viability,[3]; first compound 0.2 µM,0.657
same,relative viability,[3]; first compound 0.6325 µM,0.734
same,relative viability,[3]; first compound 2 µM,0.722
same,relative viability,[4]; first compound 0.02 µM,0.438
same,relative viability,[4]; first compound 0.2 µM,0.313
same,relative viability,[4]; first compound 0.6325 µM,0.468
same,relative viability,[4]; first compound 2 µM,0.433
same,relative viability,[5]; first compound 0.02 µM,0.533
same,relative viability,[5]; first compound 0.2 µM,0.511
same,relative viability,[5]; first compound 0.6325 µM,0.593
same,relative viability,[5]; first compound 2 µM,0.526
same,relative viability,[6]; first compound 0.02 µM,0.531
same,relative viability,[6]; first compound 0.2 µM,0.478
same,relative viability,[6]; first compound 0.6325 µM,0.602
same,relative viability,[6]; first compound 2 µM,0.469
same,relative viability,[7]; first compound 0.02 µM,0.605
same,relative viability,[7]; first compound 0.2 µM,0.367
same,relative viability,[7]; first compound 0.6325 µM,0.465
same,relative viability,[7]; first compound 2 µM,0.381
same,relative viability,[8]; first compound 0.02 µM,0.61
same,relative viability,[8]; first compound 0.2 µM,0.567
same,relative viability,[8]; first compound 0.6325 µM,0.551
same,relative viability,[8]; first compound 2 µM,0.454
same,relative viability,[9]; first compound 0.02 µM,0.544
same,relative viability,[9]; first compound 0.2 µM,0.384
same,relative viability,[9]; first compound 0.6325 µM,0.399
same,relative viability,[9]; first compound 2 µM,0.635
same,relative viability,[10]; first compound 0.02 µM,0.778
same,relative viability,[10]; first compound 0.2 µM,0.665
same,relative viability,[10]; first compound 0.6325 µM,0.715
same,relative viability,[10]; first compound 2 µM,0.641
same,relative viability,[11]; first compound 0.02 µM,0.834
same,relative viability,[11]; first compound 0.2 µM,0.778
same,relative viability,[11]; first compound 0.6325 µM,0.747
same,relative viability,[11]; first compound 2 µM,0.628
same,relative viability,[12]; first compound 0.02 µM,0.774
same,relative viability,[12]; first compound 0.2 µM,0.653
same,relative viability,[12]; first compound 0.6325 µM,0.72
same,relative viability,[12]; first compound 2 µM,0.716
same,relative viability,[13]; first compound 0.02 µM,0.563
same,relative viability,[13]; first compound 0.2 µM,0.434
same,relative viability,[13]; first compound 0.6325 µM,0.534
same,relative viability,[13]; first compound 2 µM,0.403
same,relative viability,[14]; first compound 0.02 µM,0.734
same,relative viability,[14]; first compound 0.2 µM,0.375
same,relative viability,[14]; first compound 0.6325 µM,0.667
same,relative viability,[14]; first compound 2 µM,0.626
same,relative viability,[23]; first compound 0.02 µM,0.912
same,relative viability,[23]; first compound 0.2 µM,0.793
same,relative viability,[23]; first compound 0.6325 µM,0.951
same,relative viability,[23]; first compound 2 µM,0.821
same,relative viability,[15]; first compound 0.02 µM,0.423
same,relative viability,[15]; first compound 0.2 µM,0.356
same,relative viability,[15]; first compound 0.6325 µM,0.434
same,relative viability,[15]; first compound 2 µM,0.371
same,relative viability,[16]; first compound 0.02 µM,0.797
same,relative viability,[16]; first compound 0.2 µM,0.671
same,relative viability,[16]; first compound 0.6325 µM,0.846
same,relative viability,[16]; first compound 2 µM,0.756
same,relative viability,[17]; first compound 0.02 µM,0.917
same,relative viability,[17]; first compound 0.2 µM,0.894
same,relative viability,[17]; first compound 0.6325 µM,0.992
same,relative viability,[17]; first compound 2 µM,0.712
same,relative viability,[18]; first compound 0.02 µM,0.457
same,relative viability,[18]; first compound 0.2 µM,0.242
same,relative viability,[18]; first compound 0.6325 µM,0.423
same,relative viability,[18]; first compound 2 µM,0.32
same,relative viability,[19]; first compound 0.02 µM,0.524
same,relative viability,[19]; first compound 0.6325 µM,0.491
same,relative viability,[19]; first compound 2 µM,0.475
same,relative viability,[21]; first compound 0.02 µM,0.45
same,relative viability,[21]; first compound 0.2 µM,0.37
same,relative viability,[21]; first compound 0.6325 µM,0.386
same,relative viability,[21]; first compound 2 µM,0.338
same,relative viability,[22]; first compound 0.02 µM,0.45
same,relative viability,[22]; first compound 0.2 µM,0.417
same,relative viability,[22]; first compound 0.6325 µM,0.467
same,relative viability,[22]; first compound 2 µM,0.411
